{
  "source": "patent US5968959A",
  "about": "“Method for the prevention and treatment of stunned myocardium” (Orion Corporation, priority 1998, dated 1999)",
  "key": {"[1]": {"biological_target": "T1, phospholamban inhibition of SR Ca2+-ATPase in cardiac muscle SR vesicles (Cavia porcellus, UniProt A0A286XLC6)", "T1 construct": "Their hearts or the psoas muscles were excised; from tissue; host or cells: guinea pig heart (ventricular myocardium), SR vesicles", "T1 sequence (A0A286XLC6 1-52)": "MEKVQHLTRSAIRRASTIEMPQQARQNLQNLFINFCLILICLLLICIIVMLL", "assay": "Calcium uptake assay (fluo-3), cardiac SR vesicles", "assay_type": "biochemical, guinea pig", "conditions": "for activation at 100 µM: compound 100 μM", "method": "(§1) Preparation of the SR-vesicles\n(§2) Guinea pigs (10-12) were decapited. Their hearts or the psoas muscles were excised, washed in ice-cold 0.9% NaCl and cut into pieces in a buffer containing 20 mM Tris-maleate, 0.3 M sucrose, pH 7.0. Thereafter tissue pieces were homogenized with Polytron and further with Potter (10 strokes). The homogenate was centrifugated at 1000 g for 15 min at 4° C. The supernatant was collected and the pellet was resuspended into 5 ml of the buffer (20 mM Tris-maleate, 0.3 M sucrose, pH 7.0) and recentrifugated at 1000 g for 10 min at 4° C. The obtained supernatant was combined with the earlier collected supernatant and centrifugated once again at 10 000 g for 20 min at 4° C. The final supernatant was filtered into a bottle equipped with a magnetic stirrer. KCl was added to the filtered supernatant to achieve the final concentration of 0.6 M (at 4° C.). The obtained solution was centrifugated at 100 000 g for 60 min at 4° C. The pellet was suspended in 5 ml of the buffer containing 20 mM Tris-maleate, 0.3 M sucrose, pH 7.0 and centrifugated at 100 000 g for 60 min at 4° C. The obtained pellet was suspended in 5 ml of buffer containing 20 mM Tris-maleate, 0.3 M sucrose, 0.1 M KCl, pH 7.0 and stored at -80° C. until use. The protein concentration was also measured in order to standardise the separately prepared vesicle preparations.\n(§3) In the calcium uptake assay, the fluorescent indicator, fluo-3 was used to detect the decrease of the extravesicular Ca^2+ -concentration, when the SR Ca^2+ ATPase was transferring Ca^2+ from the extravesicular space into the SR-vesicles.\n(§4) The SR-vesicles obtained above (50 μg protein/ml) were pre-incubated with or without the test compound at 37° C. for 5 min in the assay buffer containing 40 mM imidazole, 95 mM KCl, 5 mM NaN3, 5 mM MgCl2, 0.5 mM EGTA, 5 mM potassium oxalate, 2 μM ruthenium red, 5 μM fluo-3, pH 7.0. The free calcium was adjusted to 0.1 μM or to 0.04 μM by CaCl2. The reaction was initiated by adding ATP (5 mM). The final reaction volume was 1.5 ml. The fluorescence of reaction mixture was measured for 3 min by using the excitation and emission wavelengths of 510 nm and 530 nm, respectively.\n(§5) The experiments were carried out at 0.1 μM and 0.04 μM free calcium concentrations, respectively."}, "[2]": {"biological_target": "T2, SR Ca2+-ATPase in fast skeletal muscle SR vesicles (Cavia porcellus, UniProt H0UXI0)", "T2 construct": "Their hearts or the psoas muscles were excised; from tissue; host or cells: guinea pig psoas muscle, SR vesicles", "T2 sequence (H0UXI0 entry or part of it limits assumed)": "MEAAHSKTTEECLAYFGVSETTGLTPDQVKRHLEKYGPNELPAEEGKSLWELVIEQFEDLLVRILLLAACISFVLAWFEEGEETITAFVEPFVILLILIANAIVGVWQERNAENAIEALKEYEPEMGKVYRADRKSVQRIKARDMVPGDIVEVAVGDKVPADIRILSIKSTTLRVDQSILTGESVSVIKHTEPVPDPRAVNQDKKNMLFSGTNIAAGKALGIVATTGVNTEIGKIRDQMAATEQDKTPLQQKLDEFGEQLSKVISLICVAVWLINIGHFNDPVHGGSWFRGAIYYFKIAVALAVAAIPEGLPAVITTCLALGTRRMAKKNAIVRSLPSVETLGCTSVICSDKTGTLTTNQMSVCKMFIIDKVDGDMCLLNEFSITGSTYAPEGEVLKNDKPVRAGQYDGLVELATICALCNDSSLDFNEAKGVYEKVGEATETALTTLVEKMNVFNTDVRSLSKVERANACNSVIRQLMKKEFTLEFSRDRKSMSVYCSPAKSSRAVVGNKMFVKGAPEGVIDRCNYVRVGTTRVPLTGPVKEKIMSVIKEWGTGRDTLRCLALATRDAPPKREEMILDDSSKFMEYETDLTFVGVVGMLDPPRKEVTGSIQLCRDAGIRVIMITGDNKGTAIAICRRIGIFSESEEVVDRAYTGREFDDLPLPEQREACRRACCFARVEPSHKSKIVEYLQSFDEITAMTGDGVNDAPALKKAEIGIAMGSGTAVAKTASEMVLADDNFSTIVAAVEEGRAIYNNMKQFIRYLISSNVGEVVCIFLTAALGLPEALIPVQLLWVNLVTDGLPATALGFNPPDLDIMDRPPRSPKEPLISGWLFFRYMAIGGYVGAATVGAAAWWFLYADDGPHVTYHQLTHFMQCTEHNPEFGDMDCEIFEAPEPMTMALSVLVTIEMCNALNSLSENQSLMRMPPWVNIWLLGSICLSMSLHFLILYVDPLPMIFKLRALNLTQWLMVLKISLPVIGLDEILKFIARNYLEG", "assay": "Calcium uptake assay (fluo-3), fast skeletal muscle (psoas m.) SR vesicles, which lack phospholamban", "assay_type": "biochemical, guinea pig", "conditions": "for activation at 100 µM: compound 100 μM", "method": "as §1, §2, §3, §4, §5"}, "[3]": {"biological_target": "T3, PLB[1-36 a.a.] (36 amino acid N-terminal fragment of human phospholamban) (Homo sapiens, UniProt P26678)", "T3 construct": "the pSer16/pThr17 doubly phosphorylated peptide was compared", "T3 sequence (P26678 1-36)": "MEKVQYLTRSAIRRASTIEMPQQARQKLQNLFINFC", "assay": "Circular dichroism (CD) spectroscopy, binding to cytosolic part of phospholamban", "conditions": "FIG. 2", "method": "(§6) Both the 36 amino acid N-terminal fragment of human phospholamban (PLB [1-36 a.a.]) and the 36 amino acid N-terminal fragment of double phosphorylated human phospholamban (PLB [1-36 a.a.](Ser16PO3 -, Thr17PO3 -)) were obtained by peptide synthesis. The peptides were purified by reverse phase HPLC, analysed for homogenity by mass spectrometry and were found pure at 97%. The peptides were lyophilized and then resuspended in water at the final concentration of 0.1 mM, for CD analysis. The pH of both solutions was between 3 and 4 and was not further adjusted. Compound of Example 1c was solved in water at a final concentration of 0.1 mM. The pH was adjusted at 7.2 by adding 1 N NaOH.\n(§7) Circular dichroism spectra were acquired at 24° C. on samples of 100 μl. The spectra were recorded on a Jasco J-720 spectropolarimeter using a 1 mm path-length quartz cuvette. The band width was 1 nm, the sensitivity 20 mdeg, the step resolution 0.5 nm, the response time 0.5 sec, and the scan speed 20 nm/min (from 250 to 190 nm). The spectra were expressed in [θ]×10^-3 ×degrees×cm^2 ×dmol^-1."}, "[4]": {"test_system": "PLB[1-36 a.a.](Ser16PO3-, Thr17PO3-)", "assay": "Circular dichroism (CD) spectroscopy, binding to double phosphorylated phospholamban fragment", "parameters": "species or system human", "conditions": "double phosphorylated peptide; FIG. 2", "method": "as §6, §7"}, "[5]": {"test_system": "isolated guinea-pig Langendorff heart", "assay": "Development of stunned myocardium in isolated Langendorff heart (ischemia-reperfusion)", "conditions": "10 μM in perfusion buffer; three 8 min global ischemia periods each followed by reperfusion; FIG. 3B", "method": "Guinea-pigs of either sex weighing 300-400 g were used in the study. After the guinea-pig was sacrificed by a blow on the skull and decapitated the heart was rapidly excised. The heart was then rinsed in oxygenated perfusion buffer. A cannula was inserted into the aorta and secured with a ligature. Retrograde perfusion began as soon as the heart was placed in a thermostatically controlled moist chamber of the Langendorff apparatus. Modified Tyrode solution (37° C.), equilibrated in a thermostatically controlled bulb oxygenator with carbogen (95% O2 and 5% CO2) was used as a perfusion buffer. The composition of the Tyrode solution was (in mM): NaCl 135; MgCl2 ×6H2 O 1; KCl 5; CaCl2 ×2H2 O 2; NaHCO3 15; Na2 HPO4 ×2H2 O 1; glucose 10; pH 7.3-7.4. The experiments were carried out under constant pressure condition (50 mmHg). After a short prestabilization (10 min) a latex balloon attached through the stainless-steel cannula to a pressure transducer was carefully placed into the left ventricle through the left pulmonary vein and the left atrium. The latex balloon, the cannula and the chamber of the pressure transducer were filled with ethylene glycol/water (1:1) mixture avoiding any air-bubble. The isovolumetric left ventricular pressure was recorded through the pressure transducer. […]"}, "[6]": {"conditions": "0.05 h, 0.1 μM free calcium, read-out: The stimulation (%) of Ca2+ uptake, A (ventricular myocardium vesicles)"}, "[7]": {"conditions": "0.05 h, 0.04 μM free calcium, read-out: The stimulation (%) of Ca2+ uptake, B (fast skeletal muscle vesicles)"}},
  "note": "Entries after “also recorded” stand apart in the source; their conditions may differ.",
  "data": [
    {"molecule": "Cc1c(Cc2ccccc2)c(=O)oc2cc(OCc3nnn[nH]3)cc(OCc3nnn[nH]3)c12", "note": "[Example 1c, 3-Benzyl-5,7-bis[(1H -tetrazol-5-yl)methoxy]-4-methyl-2H -1-benzopyran-2-one]", "values": [
      {"measurement": "activation at 100 µM", "setting": "[1]; [6]", "result": 42, "unit": "%"},
      {"measurement": "activation at 100 µM", "setting": "[2]; [7]", "result": -6, "unit": "%"},
      {"measurement": "Change in CD spectrum (α-helical contribution) of PLB[1-36 a.a.] after addition of compound", "setting": "[3]; 50 μM each, water, room temperature", "result": "marked increase of α-helical contribution"},
      {"measurement": "Interaction (complex formation) with PLB[1-36 a.a.] by CD", "setting": "[3]; unphosphorylated peptide", "result": "forms a complex with PLB; also recorded: interacts with the cytosolic part of phospholamban"},
      {"measurement": "Interaction with phosphorylated PLB[1-36 a.a.](Ser16PO3-, Thr17PO3-) by CD", "setting": "[4]", "result": "does not interact or interacts weakly"}
    ]},
    {"molecule": "O=c1oc2cc(OCc3nnn[nH]3)cc(OCc3nnn[nH]3)c2c2c1C(c1ccccc1)CCC2", "note": "(centres unmarked) [Example 2c, 7,8,9,10-Tetrahydro-1,3-bis[(1H -tetrazol-5-yl)methoxy]-7-phenyl-6H-dibenzo[b,d]pyran-6-one]", "values": [
      {"measurement": "activation at 100 µM", "setting": "[2]; [7]", "result": -1, "unit": "%"}
    ]},
    {"molecule": "Cc1c(Cc2ccccc2)c(=O)oc2cc(OCc3noc(=O)[nH]3)cc(OCc3noc(=O)[nH]3)c12", "note": "[Example 3c, 3-Benzyl-5,7-bis[(2,5-dihydro-5-oxo-4H -1,2,4-oxadiazol-3-yl)-methoxy]-4-methyl-2H -1-benzopyran-2-one]", "values": [
      {"measurement": "activation at 20 µM", "setting": "[2]; 0.05 h, compound 20 μM, 0.04 μM free calcium, read-out: The stimulation (%) of Ca2+ uptake, B (fast skeletal muscle vesicles)", "result": 0, "unit": "%"}
    ]},
    {"molecule": "Cc1c(CCc2ccccc2)c(=O)oc2cc(OCc3nnn[nH]3)cc(OCc3nnn[nH]3)c12", "note": "[Example 7c, 5,7-Bis[(1H-tetrazol-5-yl)methoxy]-4-methyl-3-(2-phenylethyl)-2H-1benzopyran-2-one]", "values": [
      {"measurement": "activation at 100 µM", "setting": "[1]; [6]", "result": 5, "unit": "%"},
      {"measurement": "activation at 100 µM", "setting": "[2]; [7]", "result": -17, "unit": "%"}
    ]},
    {"molecule": "Cc1c(Cc2ccccc2)c(=O)n(Cc2ccccc2)c2cc(OCc3nnn[nH]3)cc(OCc3nnn[nH]3)c12", "note": "[Example 8g, 5,7-Bis[(1H-tetrazol-5-yl)methoxy]-1,3-dibenzyl-4-methyl-2(1H)-quinolinone]", "values": [
      {"measurement": "Effect on the Ca2+ uptake rate into the cardiac muscle SR vesicles", "setting": "[1]; 0.1, 1.0 and 10 μM, FIG. 1", "result": "accelerated the calcium uptake"},
      {"measurement": "Effect on the calcium uptake into the SR vesicle prepared from the fast skeletal muscle", "setting": "[2]; 0.1-10 μM", "result": "did not change the calcium uptake"},
      {"measurement": "activation at 10 µM", "setting": "[2]; 0.05 h, compound 10 μM, 0.04 μM free calcium, read-out: The stimulation (%) of Ca2+ uptake, B (fast skeletal muscle vesicles)", "result": 0, "unit": "%"},
      {"measurement": "Development of stunned myocardium (left ventricular systolic pressure)", "setting": "[5]", "result": "complete inhibition of the development of stunned myocardium; also recorded: completely inhibited the development of stunned myocardium"}
    ]},
    {"molecule": "Cc1c(Cc2ccccc2)c(=O)n(Cc2ccccc2)c2cc(OCC(=O)NO)cc(OCC(=O)NO)c12", "note": "[Example 23, 5,7-Bis(hydroxyaminocarbonylmethoxy)-1,3-dibenzyl-4-methyl-2(1H)-quinolinone]", "values": [
      {"measurement": "activation at 5 µM", "setting": "[1]; 0.05 h, compound 5 μM, 0.1 μM free calcium, read-out: The stimulation (%) of Ca2+ uptake, A (ventricular myocardium vesicles)", "result": 20, "unit": "%"}
    ]}
  ]
}
